# Laboratory results: patent US9902696B2, “1,4-substituted piperidine derivatives” (Cephalon, Inc., priority 2015, dated 2018)
# pIC50: −log10 of the molar value. Structures can show the parent of a compound that is named as a salt.
# Target: T1, recombinant human baculovirus-expressed GST-tagged FASN (Homo sapiens, UniProt P49327)
# T1 construct: GST
# Experiment: FASN enzyme activity assay, fluorescence-based detection of CoA with CPM
# Format: biochemical
# Conditions: 5 nM FASN, 150 μM NADPH, 10 μM acetyl-CoA, 25 μM malonyl-CoA, 90 minutes incubation; read-out: IC50 data for Additional Compounds of Formulae I-V(a): Activity
# Outline: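 Human GST-tagged FASN, baculovirus-expressed (5 nM), in 50 mM HEPES pH 7.5 with 150 μM NADPH, 10 μM acetyl-CoA, 25 μM malonyl-CoA, 0.5% DMSO; malonyl-CoA-started, 90 min. Released CoA detected with CPM (50 μM dilution), 30 min, fluorescence ex 390/em 530. IC50 from variable-slope sigmoidal fit of % inhibition versus log concentration.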
# T1 sequence (P49327 whole entry): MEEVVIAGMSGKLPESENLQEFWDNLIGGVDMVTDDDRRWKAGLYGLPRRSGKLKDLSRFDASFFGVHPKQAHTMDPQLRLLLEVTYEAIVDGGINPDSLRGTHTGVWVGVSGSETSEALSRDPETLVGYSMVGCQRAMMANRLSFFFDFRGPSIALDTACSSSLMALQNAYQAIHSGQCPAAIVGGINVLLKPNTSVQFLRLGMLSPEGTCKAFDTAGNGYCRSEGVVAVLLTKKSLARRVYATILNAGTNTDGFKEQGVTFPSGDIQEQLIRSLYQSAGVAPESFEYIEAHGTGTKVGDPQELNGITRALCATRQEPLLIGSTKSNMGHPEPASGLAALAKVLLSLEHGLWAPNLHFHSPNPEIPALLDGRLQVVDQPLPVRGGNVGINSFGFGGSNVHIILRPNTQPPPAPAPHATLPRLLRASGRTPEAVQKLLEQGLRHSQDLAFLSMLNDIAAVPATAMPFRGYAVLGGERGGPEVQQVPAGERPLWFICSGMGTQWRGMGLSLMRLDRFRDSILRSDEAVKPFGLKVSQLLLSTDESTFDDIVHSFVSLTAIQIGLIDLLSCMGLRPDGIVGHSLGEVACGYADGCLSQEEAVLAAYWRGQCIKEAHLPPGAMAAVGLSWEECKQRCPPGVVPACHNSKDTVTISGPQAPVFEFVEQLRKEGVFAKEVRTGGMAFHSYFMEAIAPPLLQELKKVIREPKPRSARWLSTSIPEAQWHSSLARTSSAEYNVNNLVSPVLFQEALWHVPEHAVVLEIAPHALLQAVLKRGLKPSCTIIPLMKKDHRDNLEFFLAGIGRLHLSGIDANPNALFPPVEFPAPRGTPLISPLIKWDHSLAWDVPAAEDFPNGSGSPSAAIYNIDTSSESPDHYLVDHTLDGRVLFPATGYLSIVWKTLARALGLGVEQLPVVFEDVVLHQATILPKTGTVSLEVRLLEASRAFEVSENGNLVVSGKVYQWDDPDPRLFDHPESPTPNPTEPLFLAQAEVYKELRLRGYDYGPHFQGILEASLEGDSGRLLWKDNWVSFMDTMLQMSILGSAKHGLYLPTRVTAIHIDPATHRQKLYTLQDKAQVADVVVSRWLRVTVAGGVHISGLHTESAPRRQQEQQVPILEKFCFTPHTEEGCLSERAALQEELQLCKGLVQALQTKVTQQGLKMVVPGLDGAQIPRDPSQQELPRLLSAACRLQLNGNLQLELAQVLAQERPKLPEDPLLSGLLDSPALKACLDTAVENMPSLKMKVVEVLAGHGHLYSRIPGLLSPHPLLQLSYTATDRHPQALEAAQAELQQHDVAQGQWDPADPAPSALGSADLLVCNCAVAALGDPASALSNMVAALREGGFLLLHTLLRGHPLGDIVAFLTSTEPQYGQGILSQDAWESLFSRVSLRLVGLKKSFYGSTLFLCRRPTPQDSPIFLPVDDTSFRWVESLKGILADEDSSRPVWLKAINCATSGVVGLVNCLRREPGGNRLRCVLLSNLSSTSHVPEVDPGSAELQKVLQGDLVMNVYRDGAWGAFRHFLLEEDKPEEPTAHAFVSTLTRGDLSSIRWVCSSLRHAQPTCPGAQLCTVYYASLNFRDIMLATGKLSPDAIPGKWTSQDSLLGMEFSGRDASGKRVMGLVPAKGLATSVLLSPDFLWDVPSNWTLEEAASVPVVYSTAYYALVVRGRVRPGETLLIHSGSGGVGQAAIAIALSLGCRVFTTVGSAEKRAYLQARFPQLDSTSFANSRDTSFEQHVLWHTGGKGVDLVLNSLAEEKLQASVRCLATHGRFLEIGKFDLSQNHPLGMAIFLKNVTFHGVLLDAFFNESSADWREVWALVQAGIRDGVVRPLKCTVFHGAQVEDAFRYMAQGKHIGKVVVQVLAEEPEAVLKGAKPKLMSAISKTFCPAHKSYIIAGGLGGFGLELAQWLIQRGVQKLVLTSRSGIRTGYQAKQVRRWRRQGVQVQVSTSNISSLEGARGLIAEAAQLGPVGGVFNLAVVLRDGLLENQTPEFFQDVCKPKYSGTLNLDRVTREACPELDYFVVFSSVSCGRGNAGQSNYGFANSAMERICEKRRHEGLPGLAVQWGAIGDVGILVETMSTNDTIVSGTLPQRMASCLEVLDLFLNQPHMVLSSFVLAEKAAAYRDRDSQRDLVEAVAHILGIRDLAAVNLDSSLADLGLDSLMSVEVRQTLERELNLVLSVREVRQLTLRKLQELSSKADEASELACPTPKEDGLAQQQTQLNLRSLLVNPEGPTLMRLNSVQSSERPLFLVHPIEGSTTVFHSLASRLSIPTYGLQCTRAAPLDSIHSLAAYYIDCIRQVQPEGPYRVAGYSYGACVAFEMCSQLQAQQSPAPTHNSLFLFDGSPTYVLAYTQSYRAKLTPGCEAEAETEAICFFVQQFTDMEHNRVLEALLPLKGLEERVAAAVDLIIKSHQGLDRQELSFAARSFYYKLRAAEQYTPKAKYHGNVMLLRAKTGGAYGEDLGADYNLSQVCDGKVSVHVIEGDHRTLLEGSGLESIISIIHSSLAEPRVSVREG
row,Compound,pIC50
1,"CC(=O)OCC(=O)N1CCC(Oc2ccc(-c3ccc4cccnc4c3C)cc2)CC1 [Example 625, [2-[4-[4-(8-Methyl-7-quinolyl)phenoxy]-1-piperidyl]-2-oxo-ethyl]acetate]",7.00 to 9.00
2,"Cc1c(-c2ccc(OC3CCN(C(=O)OCCN4CCOCC4)CC3)cc2)ccc2cccnc12 [Example 546, 2-Morpholinoethyl 4-[4-(8-methyl-7-quinolyl)phenoxy]piperidine-1-carboxylate 2HCl]",5.00 to 6.00
3,"Cc1c(-c2ccc(OC3CCN(C(=O)NCCN(C)C)CC3)cc2)ccc2cccnc12 [Example 545, N-(2-Dimethylaminoethyl)-4-[4-(8-methyl-7-quinolyl)phenoxy]piperidine-1-carboxamide HCl]",7.00 to 9.00
4,"Cc1c(-c2ccc(OC3CCN(C(=O)C4(N)CCC4)CC3)cc2)ccc2cccnc12 [Example 627, (1-Aminocyclobutyl)-[4-[4-(8-methyl-7-quinolyl)phenoxy]-1-piperidyl]-methanone]",5.00 to 6.00

# Same assay, conditions: 5 nM FASN, 150 μM NADPH, 10 μM acetyl-CoA, 25 μM malonyl-CoA, 90 minutes incubation; read-out: IC50 data for Compounds of Formulae I-V/V(a): Activity
row,Compound,pIC50
1,"CCC(=O)N1CCC(Oc2ccc(-c3ccc4cnccc4c3)cc2)CC1 [Example 1, 1-[4-(4-Isoquinolin-6-yl-phenoxy)-piperidin-1-yl]-propan-1-one]",7.00 to 9.00
2,"CCC(=O)N1CCC(Oc2ccc(-c3cnc4ccsc4c3)cc2)CC1 [Example 264, 1-[4-(4-Thieno[3,2-b]pyridin-6-yl-phenoxy)-piperidin-1-yl]-propan-1-one, TFA salt]",5.00 to 6.00
3,"CCC(=O)N1[C@@H]2CC[C@H]1C[C@@H](Oc1ccc(-c3ccc4cccnc4c3C)cc1)C2 [Example 369, 1-{endo-3-[4-(8-Methylquinolin-7-yl)-phenoxy]-8-aza-bicyclo[3.2.1]oct-8-yl}-propan-1-one, HCl]",6.00 to 7.00
4,"CONC(=O)N1CCC(Oc2ccc(-c3ccc4cccnc4c3OC)cc2)CC1 [Example 131, N-Methoxy-4-[4-(8-methoxy-7-quinolyl)phenoxy]piperidine-1-carboxamide, HCl]",7.00 to 9.00
5,"O=C(C1CC1)N1CCC(Oc2ccc(-c3ccc4nccn4c3Cl)cc2)CC1 [Example 297, {4-[4-(5-Chloroimidazo[1,2-a]pyridin-6-yl)-phenoxy]-piperidin-1-yl}-cyclopropylmethanone]",6.00 to 7.00
6,"Cc1c(-c2ccc(OC3CCN(C(=O)C4CCC4)CC3)cc2)cccc1-c1ccccn1 [Example 408, Cyclobutyl-[4-(2′-methyl-3′-pyridin-2-yl-biphenyl-4-yloxy)-piperidin-1-yl]-methanone, TFA salt]",5.00 to 6.00
7,"CCC(=O)N1CCC(Oc2ccc(-c3n[nH]c4ccccc34)cc2)CC1 [Example 248, 1-{4-[4-(1H-Indazol-3-yl)-phenoxy]-piperidin-1-yl}-propan-1-one]",6.00 to 7.00
8,"O=C(C1CC1)N1CCC(Nc2ccc(-c3cnc4ccccc4c3)cc2)CC1 [Example 527, Cyclopropyl-[4-(4-quinolin-3-yl-phenylamino)-piperidin-1-yl]-methanone, HCl]",5.00 to 6.00
9,"CCC(=O)N1CC[C@@H](Oc2ccc(-c3ccc4cccnc4c3C)cc2)[C@H](F)C1 (relative stereo) [Example 373, 1-{trans-3-Fluoro-4-[4-(8-methylquinolin-7-yl)-phenoxy]-piperidin-1-yl}-propan-1-one, HCl]",6.00 to 7.00
10,"O=C(C1CCC1)N1CCC(Oc2ccc(-c3cccc(-c4ccccn4)c3F)cc2)CC1 [Example 398, Cyclobutyl-[4-(2′-fluoro-3′-pyridin-2-yl-biphenyl-4-yloxy)-piperidin-1-yl]-methanone HCl]",5.00 to 6.00
11,"CCC(=O)N1CCC(Oc2ccc(-c3ccc4cnn(C)c4c3)cc2)CC1 [Example 249, 1-{4-[4-(1-Methyl-1H-indazol-6-yl)-phenoxy]-piperidin-1-yl}-propan-1-one, TFA salt]",6.00 to 7.00
12,"N#Cc1cnc2cc(-c3ccc(OC4CCN(C(=O)[C@H]5CCCO5)CC4)cc3)ccc2c1 [Example 278, 7-{4-[1-((R)-Tetrahydrofuran-2-carbonyl)-piperidin-4-yloxy]-phenyl}-quinoline-3-carbonitrile]",7.00 to 9.00
13,"Cc1ccc(C)c(C(=O)N2CCC(Oc3ccc(-c4cnc5ccccc5c4)cc3)CC2)c1 [Example 128, (2,5-Dimethylphenyl)-[4-(4-quinolin-3-yl-phenoxy)-piperidin-1-yl]-methanone, HCl]",5.00 to 6.00
14,"CCC(=O)N1CCC(Oc2ccc(-c3ccc4cn(C)nc4c3)cc2)CC1 [Example 251, 1-{4-[4-(2-Methyl-2H-indazol-6-yl)-phenoxy]-piperidin-1-yl}-propan-1-one]",6.00 to 7.00
15,"CC(C)Oc1c(-c2ccc(OC3CCN(C(=O)[C@H]4CCCO4)CC3)cc2)ccc2cccnc12 [Example 180, {4-[4-(8-Isopropoxyquinolin-7-yl)-phenoxy]-piperidin-1-yl}-(R)-tetrahydrofuran-2-yl-methanone, HCl]",7.00 to 9.00
16,"CCC(=O)N1CCC(Oc2ccc(-c3cnc4c(C)cccc4c3)cc2)CC1 [Example 486, 1-{4-[4-(8-Methylquinolin-3-yl)-phenoxy]-piperidin-1-yl}-propan-1-one, HCl]",7.00 to 9.00
17,"CCC(=O)N1CCC(Oc2ccc(-c3cncc(-c4ccccc4)c3)cc2)CC1 [Example 382, 1-{4-[4-(5-Phenylpyridin-3-yl)-phenoxy]-piperidin-1-yl}-propan-1-one]",5.00 to 6.00
18,"CCC(=O)N1CCC(Oc2ccc(-c3cnc4cc(OC)c(C)cc4c3)cc2)CC1 [Example 441, 1-{4-[4-(7-Methoxy-6-methylquinolin-3-yl)-phenoxy]-piperidin-1-yl}-propan-1-one]",5.00 to 6.00

row,Compound,pIC50
1,"CC(C)C(=O)N1CCC(Oc2ccc(-c3ccc4cccnc4c3)cc2)CC1 [Example 3, 2-Methyl-1-[4-(4-quinolin-7-yl-phenoxy)-piperidin-1-yl]-propan-1-one]",6.00 to 7.00
2,"COCCNc1c(-c2ccc(OC3CCN(C(=O)[C@H]4CCCO4)CC3)cc2)ccc2cccnc12 [Example 327, (4-{4-[8-(2-Methoxyethylamino)-quinolin-7-yl]-phenoxy}-piperidin-1-yl)-(R)-tetrahydrofuran-2-yl-methanone]",7.00 to 9.00
3,"COc1c(-c2ccc(OC3CCN(C(=O)C4CC4)CC3)cc2)ccc2cccnc12 [Example 274, Cyclopropyl-{4-[4-(8-methoxyquinolin-7-yl)-phenoxy]-piperidin-1-yl}-methanone, HCl]",7.00 to 9.00
4,"CNc1c(-c2ccc(OC3CCN(C(=O)[C@H]4CCCO4)CC3)cc2)cnc2ccccc12 [Example 236, {4-[4-(4-Methylaminoquinolin-3-yl)-phenoxy]-piperidin-1-yl}-(R)-tetrahydrofuran-2-yl-methanone]",6.00 to 7.00
5,"Cc1c(-c2ccc(OC3CCN(C(=O)[C@H]4CCCO4)CC3)cc2)ccc2cnccc12 [Example 468, {4-[4-(5-Methylisoquinolin-6-yl)-phenoxy]-piperidin-1-yl}-(R)-tetrahydro-furan-2-yl-methanone, HCl]",7.00 to 9.00
6,1-{4-[4-(4-Methylisoquinolin-6-yl)-phenox]-piperidin-1-yl}-propan-1-one HCl [Example 457],7.00 to 9.00
7,"O=C([C@@H]1CCCO1)N1CCC(Oc2ccc(-c3cnc4ccccc4c3)cc2)CC1 [Example 104, [4-(4-Quinolin-3-yl-phenoxy)-piperidin-1-yl]-(S)-tetrahydrofuran-2-yl-methanone, HCl]",7.00 to 9.00
8,"CC(C)C(=O)N1CCC(S(=O)(=O)c2ccc(-c3ccc4cccnc4c3)cc2)CC1 [Example 512, 2-Methyl-1-[4-(4-quinolin-7-yl-benzenesulfonyl)-piperidin-1-yl]-propan-1-one]",5.00 to 6.00
9,Cc1ccc2cc(-c3ccc(OC4CCN(C(=O)[C@H]5CCCO5)CC4)cc3)cnc2c1 [Example 482],7.00 to 9.00
10,"CCC(=O)N1CCC(Sc2ccc(-c3ccc4cnccc4c3)cc2)CC1 [Example 517, 1-(4-((4-(Isoquinolin-6-yl)phenyl)thio)piperidin-1-yl)propan-1-one, HCl]",7.00 to 9.00
11,"CNC(=O)N1CCC(Oc2ccc(-c3ccc4cccnc4c3OC)cc2)CC1 [Example 85, 4-[4-(8-Methoxyquinolin-7-yl)-phenoxy]-piperidine-1-carboxylic acid methylamide]",6.00 to 7.00
12,"O=C(C1CC1)N1CCC(Oc2ccc(-c3cnc4ccccc4c3Cl)cc2)CC1 [Example 48, {4-[4-(4-Chloroquinolin-3-yl)-phenoxy]-piperidin-1-yl}-cyclopropyl-methanone]",7.00 to 9.00
13,"COc1cccc2ncc(-c3ccc(OC4CCN(C(=O)[C@H]5CCCO5)CC4)cc3)cc12 [Example 465, {4-[4-(5-Methoxyquinolin-3-yl)-phenoxy]-piperidin-1-yl}-(R)-tetrahydro-furan-2-yl-methanone, HCl]",6.00 to 7.00
14,"O=C(C1CC1)N1CCC(Oc2ccc(-c3ccnc(-c4ccccc4)c3)cc2)CC1 [Example 403, Cyclopropyl-{4-[4-(2-phenylpyridin-4-yl)-phenoxy]-piperidin-1-yl}-methanone, TFA salt]",5.00 to 6.00
15,"Cc1ccc2cc(-c3ccc(OC4CCN(C(=O)C5CC5)CC4)cc3)cnc2c1 [Example 64, Cyclopropyl-{4-[4-(7-methylquinolin-3-yl)-phenoxy]-piperidin-1-yl}-methanone]",6.00 to 7.00
16,"O=C([C@H]1CCCO1)N1CCC(Oc2ccc(-c3cnc4ccsc4c3)cc2)CC1 [Example 263, (R)-Tetrahydrofuran-2-yl-[4-(4-thieno[3,2-b]pyridin-6-yl-phenoxy)-piperidin-1-yl]-methanone, TFA salt]",7.00 to 9.00
17,"O=C(C1CCC1)N1CCC(Oc2ccc(-c3cnc4ccccc4c3Cl)cc2)CC1 [Example 49, {4-[4-(4-Chloroquinolin-3-yl)-phenoxy]-piperidin-1-yl}-cyclobutyl-methanone]",7.00 to 9.00
